The values that follow come from article doi:10.1101/2020.12.20.110478v1 (biorxiv, 2020).

The target in test [1] is T1, GlyT1^minimal (Homo sapiens, UniProt P48067).
T1 sequence (P48067 91-684): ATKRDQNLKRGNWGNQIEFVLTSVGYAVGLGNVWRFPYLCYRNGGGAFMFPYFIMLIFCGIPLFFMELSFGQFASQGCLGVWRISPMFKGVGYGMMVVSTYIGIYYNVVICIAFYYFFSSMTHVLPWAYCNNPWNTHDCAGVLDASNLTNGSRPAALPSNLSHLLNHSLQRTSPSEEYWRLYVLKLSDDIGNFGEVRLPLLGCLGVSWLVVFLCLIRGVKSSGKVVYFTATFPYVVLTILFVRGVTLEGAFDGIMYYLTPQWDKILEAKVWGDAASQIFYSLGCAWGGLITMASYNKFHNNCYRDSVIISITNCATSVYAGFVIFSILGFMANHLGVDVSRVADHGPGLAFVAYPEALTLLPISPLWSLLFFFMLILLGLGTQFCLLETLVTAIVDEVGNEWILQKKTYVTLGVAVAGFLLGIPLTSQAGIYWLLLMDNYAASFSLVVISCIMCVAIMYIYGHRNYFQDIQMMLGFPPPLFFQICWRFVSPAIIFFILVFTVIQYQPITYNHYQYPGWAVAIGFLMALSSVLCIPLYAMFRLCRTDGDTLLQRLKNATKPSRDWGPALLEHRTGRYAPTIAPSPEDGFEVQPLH
Put plainly: CPM thermofluor. As to conditions: 10 uM Cmpd1; 0.73 uM protein; pH 7.5; LMNG. The test is classed as binding.

Test [2] addresses T2, human GlyT1 (hGlyT1) (Homo sapiens, UniProt P48067).
T2 sequence (P48067 1-706): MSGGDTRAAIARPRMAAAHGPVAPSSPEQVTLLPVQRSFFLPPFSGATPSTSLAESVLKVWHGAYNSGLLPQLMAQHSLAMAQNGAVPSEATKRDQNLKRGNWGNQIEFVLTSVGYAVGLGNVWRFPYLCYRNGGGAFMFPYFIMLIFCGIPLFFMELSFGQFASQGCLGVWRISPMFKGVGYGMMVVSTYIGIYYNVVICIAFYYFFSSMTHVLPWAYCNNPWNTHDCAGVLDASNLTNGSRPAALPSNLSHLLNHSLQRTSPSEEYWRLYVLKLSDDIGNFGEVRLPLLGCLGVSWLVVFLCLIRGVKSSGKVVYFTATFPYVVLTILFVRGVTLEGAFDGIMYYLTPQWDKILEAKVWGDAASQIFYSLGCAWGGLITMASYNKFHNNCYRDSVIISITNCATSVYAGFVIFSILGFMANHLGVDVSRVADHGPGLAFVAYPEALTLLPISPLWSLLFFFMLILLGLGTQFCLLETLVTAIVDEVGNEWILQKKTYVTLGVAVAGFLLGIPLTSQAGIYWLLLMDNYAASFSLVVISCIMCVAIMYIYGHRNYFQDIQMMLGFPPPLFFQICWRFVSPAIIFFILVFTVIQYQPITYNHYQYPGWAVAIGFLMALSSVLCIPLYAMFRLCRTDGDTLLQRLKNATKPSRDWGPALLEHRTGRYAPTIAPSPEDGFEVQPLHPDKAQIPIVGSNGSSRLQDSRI
Put plainly: [3H]Org24598 membrane competition, filtration. Format: binding.

Test [3] deals with T2, human GlyT1 (hGlyT1). Put plainly: [3H]glycine uptake inhibition in Flp-in-CHO cells. Format: cell-based.

One may read the IC50 as the concentration that gives 50% inhibition. A lower IC50 goes with inhibition by little substance.

Regarding `CS(=O)(=O)c1ccc(OCC(F)(F)C(F)(F)F)c(C(=O)N2Cc3ccc(OC4CCOCC4)cc3C2)c1` [Cmpd1], in test [1], the “increase in melting point” value turned out to be 30.5 °C. The results for the IC50 in test [2] and in test [3] were 12.5 nM and 26.4 nM, respectively.
